Data published in ChEMBL document CHEMBL5126581, “Chlorinated benzothiadiazines inhibit angiogenesis through suppression of VEGFR2 phosphorylation” (Bioorg Med Chem, 2022).

Experiments:
MDA-MB-468 = experiment: Cytotoxicity against human MDA-MB-468 cells assessed as inhibition of cell growth incubated for 72 hrs by MTS assay; type: functional, cell-based; conditions: MDA-MB-468, 72 h
[1] = Cytotoxicity against HEK293 cells assessed as inhibition of cell growth incubated for 72 hrs by MTS assay; type: toxicity, cell-based; conditions: human
[2] = Cytotoxicity against HEK293 cells assessed as inhibition of cell growth at 50 uM incubated for 72 hrs by MTS assay relative to control; type: toxicity, cell-based; conditions: human

CNC(=O)c1cc(Oc2ccc(NC(=O)Nc3ccc(Cl)c(C(F)(F)F)c3)cc2)ccn1 [SORAFENIB]
IC50 (MDA-MB-468): 7.31 µM | IC50 at 72 h [1]: 2.95 µM | inhibition at 72 h, 50 µM [2]: 99%
